Measurements from ChEMBL document CHEMBL1201862, “PubChem BioAssay data set” (2004).
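Grown in 96-well plates, cells were treated for 48 hours with each compound at five concentrations. Insufficient inhibition: endpoint recorded as highest concentration tested. GI50 marks 50% less growth.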 Activity calls are given as the source filed them. No stated cut-off is given here; in the data, active = GI50 up to about 1.1 µM and inactive = higher.

Assays:
Experiment in all cases: NCI anticancer screen, dose series, 48 h
[1] = system: 786-0
[2] = system: A498
[3] = system: ACHN
[4] = system: CCRF-CEM
[5] = system: COLO 205
[6] = system: HCT-116
[7] = system: HCT-15
[8] = system: HOP-62
[9] = system: LOX IMVI
[10] = system: MCF7
[11] = system: OVCAR-5
[12] = system: OVCAR-8
[13] = system: SF-268
[14] = system: SF-295
[15] = system: SF-539
[16] = system: SNB-75
[17] = system: SR
[18] = system: TK-10
[19] = system: U-251
[20] = system: NCI-H522

Compound	GI50 [1]	GI50 [2]	GI50 [3]	GI50 [4]	GI50 [5]	GI50 [6]	GI50 [7]	GI50 [8]	GI50 [9]	GI50 [10]	GI50 [11]	GI50 [12]	GI50 [13]	GI50 [14]	GI50 [15]	GI50 [16]	GI50 [17]	GI50 [18]	GI50 [19]	GI50 [20]
CCOc1cc(/C=N\O)cc(/C=N/O)c1O	49.4 µM (inactive)	18 µM (inactive)	22.7 µM (inactive)	35.3 µM (inactive)	22.8 µM (inactive)	38.5 µM (inactive)	31.3 µM	37.1 µM (inactive)	22.2 µM (inactive)	9.68 µM (inactive)	50.6 µM (inactive)	25.2 µM (inactive)	22.6 µM (inactive)	38.3 µM (inactive)	24 µM (inactive)	23.1 µM (inactive)	29.3 µM (inactive)	> 100 µM (inactive)	25.6 µM (inactive)	–
CC1(C)CCc2c(ccc(C(=O)/C=C/c3ccc(O)cc3)c2O)O1 [DORSMANNIN A]	–	13.7 µM (inactive)	10.7 µM (inactive)	2.78 µM (inactive)	10.9 µM (inactive)	10.3 µM (inactive)	10.8 µM	9.91 µM (inactive)	10.2 µM (inactive)	14.2 µM (inactive)	11.6 µM (inactive)	12 µM (inactive)	12.9 µM (inactive)	12.4 µM (inactive)	11.9 µM (inactive)	–	11.9 µM (inactive)	10.3 µM (inactive)	10.4 µM (inactive)	–
CC1(C)OP(=O)(O)CC1=O	> 100 µM (inactive)	> 100 µM (inactive)	> 100 µM (inactive)	–	> 100 µM (inactive)	> 100 µM (inactive)	> 100 µM	> 100 µM (inactive)	> 100 µM (inactive)	> 100 µM (inactive)	> 100 µM (inactive)	> 100 µM (inactive)	> 100 µM (inactive)	> 100 µM (inactive)	> 100 µM (inactive)	–	> 100 µM (inactive)	> 100 µM (inactive)	> 100 µM (inactive)	> 100 µM (inactive)
N#CC1(C#N)C2C=CC(C3CCC=C32)C1(C#N)C#N (centres undefined)	> 5.66 µM (inactive)	> 10 µM (inactive)	> 6.37 µM (inactive)	1.91 µM (inactive)	1.94 µM (inactive)	> 6.56 µM (inactive)	> 10 µM	> 10 µM (inactive)	> 10 µM (inactive)	> 8.2 µM (inactive)	> 10 µM (inactive)	> 10 µM (inactive)	> 10 µM (inactive)	> 10 µM (inactive)	> 10 µM (inactive)	> 10 µM (inactive)	7.4 µM (inactive)	> 5.7 µM (inactive)	> 10 µM (inactive)	2.96 µM (inactive)
CCCCC1=C(C(=O)N2CCOCC2)C2(OCCO2)C1=O	18.2 µM (inactive)	27.8 µM (inactive)	17.4 µM (inactive)	32.2 µM (inactive)	17.7 µM (inactive)	18.5 µM (inactive)	18.2 µM	23.6 µM (inactive)	12.8 µM (inactive)	44.6 µM (inactive)	16.9 µM (inactive)	23.2 µM (inactive)	24 µM (inactive)	32.5 µM (inactive)	23 µM (inactive)	43.5 µM (inactive)	83.8 µM (inactive)	33.3 µM (inactive)	31.3 µM (inactive)	15.7 µM (inactive)
COc1ccc(NCC(=O)Nn2c(-c3ccccc3)nc3ccccc3c2=O)cc1	25.6 µM (inactive)	23.3 µM (inactive)	38.4 µM (inactive)	24.2 µM (inactive)	37.2 µM (inactive)	> 10 µM (inactive)	54 µM	86.1 µM (inactive)	19.6 µM (inactive)	18.2 µM (inactive)	> 100 µM (inactive)	31.9 µM (inactive)	36.2 µM (inactive)	> 100 µM (inactive)	39.2 µM (inactive)	44.4 µM (inactive)	35.8 µM (inactive)	> 100 µM (inactive)	28.7 µM (inactive)	> 10 µM (inactive)
O=c1c(-c2ccccc2)c(SCCCN2CCCCC2)n(-c2ccccc2)c(=S)n1-c1ccccc1	–	15.1 µM (inactive)	17.4 µM (inactive)	15.7 µM (inactive)	17.6 µM (inactive)	–	17.3 µM	17.8 µM (inactive)	16.3 µM (inactive)	15.6 µM (inactive)	> 100 µM (inactive)	18.6 µM (inactive)	–	17.1 µM (inactive)	15.7 µM (inactive)	15.3 µM (inactive)	16.2 µM (inactive)	16.9 µM (inactive)	15.6 µM (inactive)	22.4 µM (inactive)
C=CCNC(=S)N/N=C1\C(=O)Nc2ccc([N+](=O)[O-])cc21	–	21.1 µM (inactive)	23.3 µM (inactive)	5.13 µM (inactive)	92 µM (inactive)	24.8 µM (inactive)	7.57 µM	> 100 µM (inactive)	81.8 µM (inactive)	36.1 µM (inactive)	> 100 µM (inactive)	50.5 µM (inactive)	57 µM (inactive)	29 µM (inactive)	> 100 µM (inactive)	–	10.3 µM (inactive)	26.4 µM (inactive)	64.3 µM (inactive)	64.1 µM (inactive)
c1ccc(CSC(SCc2ccccc2)c2cccc3ccccc23)cc1	–	> 10 µM (inactive)	> 10 µM (inactive)	> 10 µM (inactive)	> 10 µM (inactive)	> 10 µM (inactive)	> 10 µM	> 10 µM (inactive)	–	> 10 µM (inactive)	> 10 µM (inactive)	> 10 µM (inactive)	> 10 µM (inactive)	8.85 µM (inactive)	> 10 µM (inactive)	> 10 µM (inactive)	> 10 µM (inactive)	> 10 µM (inactive)	> 10 µM (inactive)	7.87 µM (inactive)
O=C(c1cccs1)N(C(=S)OC12CC3CC(CC(C3)C1)C2)c1ccccc1	35.4 µM (inactive)	33.2 µM (inactive)	33 µM (inactive)	15.3 µM (inactive)	17.7 µM (inactive)	22.2 µM (inactive)	29.8 µM	47.6 µM (inactive)	22.5 µM (inactive)	30.7 µM (inactive)	29.4 µM (inactive)	31.8 µM (inactive)	37.6 µM (inactive)	27.9 µM (inactive)	34.5 µM (inactive)	85.7 µM (inactive)	25.2 µM (inactive)	44 µM (inactive)	29.1 µM (inactive)	17.2 µM (inactive)
O=C(O)C(CCc1ccccc1)N1C(=O)c2ccccc2C1=O (centres undefined)	> 100 µM (inactive)	> 100 µM (inactive)	> 100 µM (inactive)	> 100 µM (inactive)	> 100 µM (inactive)	> 100 µM (inactive)	> 100 µM	> 100 µM (inactive)	> 100 µM (inactive)	> 100 µM (inactive)	> 100 µM (inactive)	> 100 µM (inactive)	–	> 100 µM (inactive)	> 100 µM (inactive)	> 100 µM (inactive)	> 100 µM (inactive)	> 100 µM (inactive)	> 100 µM (inactive)	–
O=C(NC(COC(=O)C(Cc1ccccc1)NC(=O)c1ccccc1)Cc1ccccc1)c1ccccc1 (centres undefined)	–	> 50 µM (inactive)	> 50 µM (inactive)	–	–	–	> 50 µM	> 50 µM (inactive)	–	> 50 µM (inactive)	> 50 µM (inactive)	> 50 µM (inactive)	> 50 µM (inactive)	32.7 µM (inactive)	> 50 µM (inactive)	> 50 µM (inactive)	> 50 µM (inactive)	> 50 µM (inactive)	35 µM (inactive)	> 50 µM (inactive)
C=C1CC(C)(COc2ccc3c(C)cc(=O)oc3c2)OC1=O (centres undefined)	1.48 µM (inactive)	–	2.08 µM (inactive)	0.229 µM (active)	0.951 µM (active)	0.778 µM (active)	1.47 µM	13.8 µM (inactive)	1.59 µM (inactive)	0.706 µM (active)	4.22 µM (inactive)	3.17 µM (inactive)	4.41 µM (inactive)	4.34 µM (inactive)	0.951 µM (active)	5.42 µM (inactive)	0.918 µM (active)	1.26 µM (inactive)	10.9 µM (inactive)	0.276 µM (active)
O=C(CC(=O)N1N=C(c2ccccc2)C(/N=N/c2ccc(S(=O)(=O)CCOS(=O)(=O)O)cc2)C1=O)Nc1ccc(Cl)cc1 (centres undefined)	> 100 µM (inactive)	> 100 µM (inactive)	9.82 µM (inactive)	49.5 µM (inactive)	> 100 µM (inactive)	85.9 µM (inactive)	8.61 µM	> 100 µM (inactive)	84.1 µM (inactive)	> 100 µM (inactive)	> 100 µM (inactive)	> 100 µM (inactive)	> 100 µM (inactive)	> 100 µM (inactive)	> 100 µM (inactive)	> 100 µM (inactive)	> 100 µM (inactive)	> 100 µM (inactive)	> 100 µM (inactive)	30.9 µM (inactive)
